# Measurements reported in the kinase profiling compilation of Christmann-Franck et al. (2016).
# Target: PTK2B (human) (UniProt Q14289)
# Test: radiometric filter-binding kinase assay, Kinase HotSpot
# Settings: compound 0.5 µM; ATP 10 µM
# Chain of PTK2B (human) (Q14289 whole entry, looked up): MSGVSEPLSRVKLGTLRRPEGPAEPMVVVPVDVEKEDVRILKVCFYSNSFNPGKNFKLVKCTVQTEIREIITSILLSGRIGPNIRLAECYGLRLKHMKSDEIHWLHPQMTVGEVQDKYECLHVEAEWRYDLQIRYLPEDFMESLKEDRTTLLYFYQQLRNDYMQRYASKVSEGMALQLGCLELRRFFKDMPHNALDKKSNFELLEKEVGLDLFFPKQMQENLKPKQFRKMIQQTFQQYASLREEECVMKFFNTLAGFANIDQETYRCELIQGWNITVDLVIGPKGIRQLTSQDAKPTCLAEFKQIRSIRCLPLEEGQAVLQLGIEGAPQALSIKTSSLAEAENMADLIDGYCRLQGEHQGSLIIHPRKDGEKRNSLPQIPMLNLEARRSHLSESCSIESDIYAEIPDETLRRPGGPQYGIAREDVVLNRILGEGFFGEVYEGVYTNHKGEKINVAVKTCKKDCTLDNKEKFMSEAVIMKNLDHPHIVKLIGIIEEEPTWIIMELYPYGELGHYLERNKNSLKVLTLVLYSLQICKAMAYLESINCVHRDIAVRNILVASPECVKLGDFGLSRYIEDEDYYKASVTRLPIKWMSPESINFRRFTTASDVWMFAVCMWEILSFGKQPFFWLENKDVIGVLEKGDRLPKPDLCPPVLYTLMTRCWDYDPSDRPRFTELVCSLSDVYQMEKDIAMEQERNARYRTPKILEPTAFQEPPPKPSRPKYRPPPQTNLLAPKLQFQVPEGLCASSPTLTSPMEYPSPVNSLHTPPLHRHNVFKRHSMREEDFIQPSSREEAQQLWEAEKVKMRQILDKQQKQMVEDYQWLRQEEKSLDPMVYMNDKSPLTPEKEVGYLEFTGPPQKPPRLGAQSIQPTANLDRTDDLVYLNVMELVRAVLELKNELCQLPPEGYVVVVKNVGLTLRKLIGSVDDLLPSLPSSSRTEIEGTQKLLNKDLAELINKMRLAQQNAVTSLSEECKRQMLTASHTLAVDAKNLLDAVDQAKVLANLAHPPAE
row,SMILES,residual activity [%]
1,COc1cc2ncnc(Nc3ccc(F)c(Cl)c3)c2cc1OCCCN1CCOCC1,98.9
2,C#Cc1cccc(Nc2ncnc3cc(OCCOC)c(OCCOC)cc23)c1,97.6
3,CC(C)(C)c1nc2c3ccc(F)cc3c3c(=O)[nH]ccc3c2[nH]1,48.4
4,CS(=O)c1ccc(-c2nc(-c3ccc(F)cc3)c(-c3ccncc3)[nH]2)cc1 (stereo not given),92.5

# Target: HIPK2 (human) (UniProt Q9H2X6)
# Test: as above
# Settings: compound 0.5 µM; ATP 10 µM
row,SMILES,residual activity [%]
1,CC(C)[C@H](CO)Nc1nc(Nc2cccc(Cl)c2)c2ncn(C(C)C)c2n1,86.3
2,COc1cc2ncnc(Nc3ccc(F)c(Cl)c3)c2cc1OCCCN1CCOCC1,99.7
3,C#Cc1cccc(Nc2ncnc3cc(OCCOC)c(OCCOC)cc23)c1,99.3
4,CC(C)(C)c1nc2c3ccc(F)cc3c3c(=O)[nH]ccc3c2[nH]1,98.7
5,CS(=O)c1ccc(-c2nc(-c3ccc(F)cc3)c(-c3ccncc3)[nH]2)cc1 (stereo not given),102

# Target: DYRK4 (human) (UniProt Q9NR20)
# Sequence (Q9NR20 whole entry, looked up): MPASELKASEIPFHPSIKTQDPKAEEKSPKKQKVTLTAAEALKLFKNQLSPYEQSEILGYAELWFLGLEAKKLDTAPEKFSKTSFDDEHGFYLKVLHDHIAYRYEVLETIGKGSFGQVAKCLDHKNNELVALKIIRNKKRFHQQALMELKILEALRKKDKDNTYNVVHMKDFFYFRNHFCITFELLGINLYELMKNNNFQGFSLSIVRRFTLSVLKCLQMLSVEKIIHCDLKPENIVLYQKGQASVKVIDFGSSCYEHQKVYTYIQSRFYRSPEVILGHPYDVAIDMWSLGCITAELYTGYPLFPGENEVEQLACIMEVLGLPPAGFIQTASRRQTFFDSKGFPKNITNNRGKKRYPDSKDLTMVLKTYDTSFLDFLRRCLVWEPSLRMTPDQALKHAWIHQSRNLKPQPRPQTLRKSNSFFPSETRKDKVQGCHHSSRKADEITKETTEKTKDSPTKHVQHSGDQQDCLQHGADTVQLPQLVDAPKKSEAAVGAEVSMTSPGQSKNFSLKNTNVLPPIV
# Test: as above
# Settings: compound 0.5 µM; ATP 10 µM
row,SMILES,residual activity [%]
1,CC(C)[C@H](CO)Nc1nc(Nc2cccc(Cl)c2)c2ncn(C(C)C)c2n1,91.2
2,COc1cc2ncnc(Nc3ccc(F)c(Cl)c3)c2cc1OCCCN1CCOCC1,105
3,C#Cc1cccc(Nc2ncnc3cc(OCCOC)c(OCCOC)cc23)c1,101
4,CC(C)(C)c1nc2c3ccc(F)cc3c3c(=O)[nH]ccc3c2[nH]1,104
5,CS(=O)c1ccc(-c2nc(-c3ccc(F)cc3)c(-c3ccncc3)[nH]2)cc1 (stereo not given),99.2

# Target: CAMKK2 (human) (UniProt Q96RR4)
# Test: as above
# Settings: compound 0.5 µM; ATP 10 µM
row,SMILES,residual activity [%]
1,CC(C)[C@H](CO)Nc1nc(Nc2cccc(Cl)c2)c2ncn(C(C)C)c2n1,70.9
2,COc1cc2ncnc(Nc3ccc(F)c(Cl)c3)c2cc1OCCCN1CCOCC1,103
3,C#Cc1cccc(Nc2ncnc3cc(OCCOC)c(OCCOC)cc23)c1,97.1
4,CC(C)(C)c1nc2c3ccc(F)cc3c3c(=O)[nH]ccc3c2[nH]1,69.4
5,CS(=O)c1ccc(-c2nc(-c3ccc(F)cc3)c(-c3ccncc3)[nH]2)cc1 (stereo not given),110

# Target: NEK1 (human) (UniProt Q96PY6)
# Sequence (Q96PY6 whole entry, looked up): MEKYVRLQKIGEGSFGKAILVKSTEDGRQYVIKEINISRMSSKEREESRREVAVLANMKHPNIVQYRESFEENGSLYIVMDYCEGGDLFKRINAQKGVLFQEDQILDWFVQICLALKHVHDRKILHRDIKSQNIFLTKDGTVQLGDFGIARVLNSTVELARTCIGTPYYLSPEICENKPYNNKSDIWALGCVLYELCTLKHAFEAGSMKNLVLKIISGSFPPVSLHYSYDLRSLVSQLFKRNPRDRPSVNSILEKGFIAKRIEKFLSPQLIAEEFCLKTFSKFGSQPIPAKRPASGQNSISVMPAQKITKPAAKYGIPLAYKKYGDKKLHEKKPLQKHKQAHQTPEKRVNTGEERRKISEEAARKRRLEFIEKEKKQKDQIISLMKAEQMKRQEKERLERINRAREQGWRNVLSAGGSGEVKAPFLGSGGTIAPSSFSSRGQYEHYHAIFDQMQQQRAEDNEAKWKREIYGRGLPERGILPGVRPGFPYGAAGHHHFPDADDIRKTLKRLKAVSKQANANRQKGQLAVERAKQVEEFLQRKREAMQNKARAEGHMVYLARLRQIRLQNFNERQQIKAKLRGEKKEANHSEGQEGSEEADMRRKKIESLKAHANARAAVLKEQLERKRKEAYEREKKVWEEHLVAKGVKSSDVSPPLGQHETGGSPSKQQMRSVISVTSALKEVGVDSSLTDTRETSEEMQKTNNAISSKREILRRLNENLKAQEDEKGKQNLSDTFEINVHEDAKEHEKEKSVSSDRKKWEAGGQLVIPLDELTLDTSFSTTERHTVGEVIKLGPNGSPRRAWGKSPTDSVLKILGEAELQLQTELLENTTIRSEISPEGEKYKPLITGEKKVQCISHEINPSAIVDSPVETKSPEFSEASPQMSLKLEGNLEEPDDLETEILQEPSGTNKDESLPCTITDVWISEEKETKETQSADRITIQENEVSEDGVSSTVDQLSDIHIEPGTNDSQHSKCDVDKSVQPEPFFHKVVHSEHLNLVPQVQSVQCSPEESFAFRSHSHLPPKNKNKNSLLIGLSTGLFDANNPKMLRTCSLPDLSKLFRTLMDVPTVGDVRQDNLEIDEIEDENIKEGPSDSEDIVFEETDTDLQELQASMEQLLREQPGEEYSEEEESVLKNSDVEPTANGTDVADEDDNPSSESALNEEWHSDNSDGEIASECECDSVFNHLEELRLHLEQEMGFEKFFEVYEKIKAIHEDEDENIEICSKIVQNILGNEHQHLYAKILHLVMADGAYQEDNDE
# Test: as above
# Settings: compound 0.5 µM; ATP 10 µM
row,SMILES,residual activity [%]
1,CC(C)[C@H](CO)Nc1nc(Nc2cccc(Cl)c2)c2ncn(C(C)C)c2n1,107
2,COc1cc2ncnc(Nc3ccc(F)c(Cl)c3)c2cc1OCCCN1CCOCC1,90.4
3,C#Cc1cccc(Nc2ncnc3cc(OCCOC)c(OCCOC)cc23)c1,73.8
4,CC(C)(C)c1nc2c3ccc(F)cc3c3c(=O)[nH]ccc3c2[nH]1,49
5,CS(=O)c1ccc(-c2nc(-c3ccc(F)cc3)c(-c3ccncc3)[nH]2)cc1 (stereo not given),94.7

# Target: ROCK1 (human) (UniProt Q13464)
# Test: as above
# Settings: compound 0.5 µM; ATP 10 µM
row,SMILES,residual activity [%]
1,CC(C)[C@H](CO)Nc1nc(Nc2cccc(Cl)c2)c2ncn(C(C)C)c2n1,100
2,COc1cc2ncnc(Nc3ccc(F)c(Cl)c3)c2cc1OCCCN1CCOCC1,106
3,C#Cc1cccc(Nc2ncnc3cc(OCCOC)c(OCCOC)cc23)c1,107
4,CC(C)(C)c1nc2c3ccc(F)cc3c3c(=O)[nH]ccc3c2[nH]1,74.9
5,CS(=O)c1ccc(-c2nc(-c3ccc(F)cc3)c(-c3ccncc3)[nH]2)cc1 (stereo not given),102

# Target: ERBB2 (human) (UniProt P04626)
# Sequence (P04626 whole entry, looked up): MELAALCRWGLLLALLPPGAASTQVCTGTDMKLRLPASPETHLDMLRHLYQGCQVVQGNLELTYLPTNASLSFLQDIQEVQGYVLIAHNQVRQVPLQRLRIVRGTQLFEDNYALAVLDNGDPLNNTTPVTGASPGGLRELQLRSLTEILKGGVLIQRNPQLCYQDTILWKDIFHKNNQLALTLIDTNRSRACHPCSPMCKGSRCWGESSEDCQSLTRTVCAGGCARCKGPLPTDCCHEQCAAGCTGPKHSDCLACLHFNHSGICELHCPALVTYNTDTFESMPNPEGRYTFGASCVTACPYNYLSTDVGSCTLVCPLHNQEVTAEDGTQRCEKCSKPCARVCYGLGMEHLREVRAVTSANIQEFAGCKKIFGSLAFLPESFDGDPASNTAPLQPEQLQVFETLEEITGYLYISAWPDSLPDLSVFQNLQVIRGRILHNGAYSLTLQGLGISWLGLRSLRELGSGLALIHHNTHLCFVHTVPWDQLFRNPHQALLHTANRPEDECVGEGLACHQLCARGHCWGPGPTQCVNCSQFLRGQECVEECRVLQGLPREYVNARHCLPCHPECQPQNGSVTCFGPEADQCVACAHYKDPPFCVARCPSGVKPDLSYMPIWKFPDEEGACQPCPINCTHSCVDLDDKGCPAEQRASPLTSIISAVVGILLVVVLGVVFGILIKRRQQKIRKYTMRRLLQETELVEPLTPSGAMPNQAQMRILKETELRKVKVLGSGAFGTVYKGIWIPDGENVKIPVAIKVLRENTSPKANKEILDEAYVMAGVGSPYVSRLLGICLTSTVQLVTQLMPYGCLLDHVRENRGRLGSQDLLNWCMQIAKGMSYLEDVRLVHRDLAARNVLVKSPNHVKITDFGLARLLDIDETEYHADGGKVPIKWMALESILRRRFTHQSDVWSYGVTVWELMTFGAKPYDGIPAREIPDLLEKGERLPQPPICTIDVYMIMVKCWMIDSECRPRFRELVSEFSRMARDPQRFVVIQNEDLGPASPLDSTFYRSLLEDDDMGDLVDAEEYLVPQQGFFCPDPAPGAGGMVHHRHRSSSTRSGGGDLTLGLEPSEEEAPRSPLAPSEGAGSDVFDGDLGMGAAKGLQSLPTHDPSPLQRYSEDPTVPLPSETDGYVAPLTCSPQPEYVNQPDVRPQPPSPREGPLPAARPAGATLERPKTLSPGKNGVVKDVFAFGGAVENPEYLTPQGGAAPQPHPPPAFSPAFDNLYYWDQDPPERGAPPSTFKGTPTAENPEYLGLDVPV
# Test: as above
# Settings: compound 0.5 µM; ATP 10 µM
row,SMILES,residual activity [%]
1,CC(C)[C@H](CO)Nc1nc(Nc2cccc(Cl)c2)c2ncn(C(C)C)c2n1,97.1
2,COc1cc2ncnc(Nc3ccc(F)c(Cl)c3)c2cc1OCCCN1CCOCC1,34.2
3,C#Cc1cccc(Nc2ncnc3cc(OCCOC)c(OCCOC)cc23)c1,52.8
4,CC(C)(C)c1nc2c3ccc(F)cc3c3c(=O)[nH]ccc3c2[nH]1,109
5,CS(=O)c1ccc(-c2nc(-c3ccc(F)cc3)c(-c3ccncc3)[nH]2)cc1 (stereo not given),94.6

# Target: PKN2 (human) (UniProt Q16513)
# Test: as above
# Settings: compound 0.5 µM; ATP 10 µM
row,SMILES,residual activity [%]
1,COc1cc2ncnc(Nc3ccc(F)c(Cl)c3)c2cc1OCCCN1CCOCC1,93.1
2,CC(C)(C)c1nc2c3ccc(F)cc3c3c(=O)[nH]ccc3c2[nH]1,67.1

# Target: FGFR2 (human) (UniProt P21802)
# Sequence (P21802 whole entry, looked up): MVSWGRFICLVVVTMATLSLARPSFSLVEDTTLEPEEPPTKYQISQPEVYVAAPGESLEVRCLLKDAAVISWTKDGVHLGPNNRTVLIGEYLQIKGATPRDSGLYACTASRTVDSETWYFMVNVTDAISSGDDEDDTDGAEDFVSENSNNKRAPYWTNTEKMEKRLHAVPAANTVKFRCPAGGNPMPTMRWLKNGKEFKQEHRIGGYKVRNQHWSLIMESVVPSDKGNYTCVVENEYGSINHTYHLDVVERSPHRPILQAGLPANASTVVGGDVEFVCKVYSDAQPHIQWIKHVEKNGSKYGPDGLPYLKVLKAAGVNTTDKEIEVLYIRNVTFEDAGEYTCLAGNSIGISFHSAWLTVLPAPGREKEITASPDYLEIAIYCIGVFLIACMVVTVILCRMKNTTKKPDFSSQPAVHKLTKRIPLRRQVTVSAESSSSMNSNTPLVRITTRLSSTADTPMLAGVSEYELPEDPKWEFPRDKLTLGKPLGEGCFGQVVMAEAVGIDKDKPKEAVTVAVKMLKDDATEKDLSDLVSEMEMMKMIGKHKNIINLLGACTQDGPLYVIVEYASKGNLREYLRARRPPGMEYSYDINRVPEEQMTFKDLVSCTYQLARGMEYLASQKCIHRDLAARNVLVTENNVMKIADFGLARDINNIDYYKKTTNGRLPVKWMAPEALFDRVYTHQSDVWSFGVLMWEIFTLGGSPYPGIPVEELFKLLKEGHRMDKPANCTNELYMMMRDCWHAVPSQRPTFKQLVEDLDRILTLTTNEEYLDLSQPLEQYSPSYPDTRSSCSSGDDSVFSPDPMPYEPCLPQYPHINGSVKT
# Test: as above
# Settings: compound 0.5 µM; ATP 10 µM
row,SMILES,residual activity [%]
1,CC(C)[C@H](CO)Nc1nc(Nc2cccc(Cl)c2)c2ncn(C(C)C)c2n1,105
2,COc1cc2ncnc(Nc3ccc(F)c(Cl)c3)c2cc1OCCCN1CCOCC1,98.7
3,C#Cc1cccc(Nc2ncnc3cc(OCCOC)c(OCCOC)cc23)c1,83.4
4,CC(C)(C)c1nc2c3ccc(F)cc3c3c(=O)[nH]ccc3c2[nH]1,99.1
5,CS(=O)c1ccc(-c2nc(-c3ccc(F)cc3)c(-c3ccncc3)[nH]2)cc1 (stereo not given),103

# Target: PHKG2 (human) (UniProt P15735)
# Test: as above
# Settings: compound 0.5 µM; ATP 10 µM
row,SMILES,residual activity [%]
1,CC(C)[C@H](CO)Nc1nc(Nc2cccc(Cl)c2)c2ncn(C(C)C)c2n1,117
2,COc1cc2ncnc(Nc3ccc(F)c(Cl)c3)c2cc1OCCCN1CCOCC1,93.9
3,C#Cc1cccc(Nc2ncnc3cc(OCCOC)c(OCCOC)cc23)c1,97.9
4,CC(C)(C)c1nc2c3ccc(F)cc3c3c(=O)[nH]ccc3c2[nH]1,57.3
5,CS(=O)c1ccc(-c2nc(-c3ccc(F)cc3)c(-c3ccncc3)[nH]2)cc1 (stereo not given),102

# Target: CSF1R (human) (UniProt P07333)
# Test: as above
# Settings: compound 0.5 µM; ATP 10 µM
row,SMILES,residual activity [%]
1,CC(C)[C@H](CO)Nc1nc(Nc2cccc(Cl)c2)c2ncn(C(C)C)c2n1,96.9
2,COc1cc2ncnc(Nc3ccc(F)c(Cl)c3)c2cc1OCCCN1CCOCC1,110
3,CC(C)(C)c1nc2c3ccc(F)cc3c3c(=O)[nH]ccc3c2[nH]1,93
4,CS(=O)c1ccc(-c2nc(-c3ccc(F)cc3)c(-c3ccncc3)[nH]2)cc1 (stereo not given),95.5
